One experiment concerns the target T1, K^b sol (Mus musculus, UniProt P01901).
T1 construct: K^b α1α2α3 domains (274 residues) and murine β2 microglobulin (99 residues); made in house; host or cells: Drosophila S2/M3 cells
T1 sequence (P01901 22-295): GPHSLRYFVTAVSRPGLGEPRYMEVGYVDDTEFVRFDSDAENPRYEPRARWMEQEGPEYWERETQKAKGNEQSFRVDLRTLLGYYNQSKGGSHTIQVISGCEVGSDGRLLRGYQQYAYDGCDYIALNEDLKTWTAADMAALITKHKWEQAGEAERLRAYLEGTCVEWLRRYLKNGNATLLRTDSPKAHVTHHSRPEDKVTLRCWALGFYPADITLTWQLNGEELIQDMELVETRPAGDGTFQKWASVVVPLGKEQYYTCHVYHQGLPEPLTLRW
T1 sequence (P01887 21-119 partner): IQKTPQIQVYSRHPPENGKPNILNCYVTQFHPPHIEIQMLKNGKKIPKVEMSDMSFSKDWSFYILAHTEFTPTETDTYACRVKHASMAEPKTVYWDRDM
The experiment in a line: biochemical. The format is binding, murine.

Another experiment concerns B3/CD8 T cell hybridoma. In words: Antigen presentation assay: IL-2 production by B3/CD8 measured with CTLL ^3 H thymidine incorporation. Particulars: peptide added to the culture medium, or protein osmotically loaded.

The record followed here is US5827737A, “In vitro activation of cytotoxic T cells” (The Scripps Research Institute, priority 1996, dated 1998).

Read-outs that look alike come from different tables or passages of the source. Where no end group is shown, it is not given here.

The Kd is the equilibrium constant for the complex coming apart.

RGYVYQGLKS [VSV-10C] returned a Kd at K^b sol of 21 nM. For the molecule SIINFEKLTE [OVA-10C], the Kd on K^b sol (read-out: KD) is 14 nM.

On to RGYVYQGLK [VSV-9C], for which the Kd on K^b sol was determined as 6.9 nM. Regarding DLRGYVYQGL [VSV-10N], the Kd at K^b sol was found to be 390 nM. On K^b sol, LRGYVYQGL [VSV-9N] yielded a Kd of 7.3 nM. In the case of `CC[C@H](C)[C@H](NC(=O)[C@@H](NC(=O)[C@@H](N)CO)[C@@H](C)CC)C(=O)N[C@@H](CC(N)=O)C(=O)N[C@@H](Cc1ccccc1)C(=O)N[C@@H](CCC(=O)O)C(=O)N[C@@H](CCCCN)C(=O)N[C@@H](CC(C)C)C(=O)O` [OVA-8, reference compound], the Kd at K^b sol (read-out: KD) was determined as 4.1 nM.

GYVYQGL [VSV-7, GYVYQGL] showed a Kd at K^b sol of 53 nM. SIINFEKLT [OVA-9C]: the dissociation constant Kd on K^b sol (read-out: KD) is 11 nM. The same measure, in the same setting: under LESIINFEKL [OVA-10N] stands 280 nM.

B1: ovalbumin protein: ovalbumin (Sigma Chem. Co.) osmotically loaded into the cells (protein, UniProt P01012 2-386, looked up)
Ovalbumin: GSIGAASMEFCFDVFKELKVHHANENIFYCPIAIMSALAMVYLGAKDSTRTQINKVVRFDKLPGFGDSIEAQCGTSVNVHSSLRDILNQITKPNDVYSFSLASRLYAEERYPILPEYLQCVKELYRGGLEPINFQTAADQARELINSWVESQTNGIIRNVLQPSSVDSQTAMVLVNAIVFKGLWEKAFKDEDTQAMPFRVTEQESKPVQMMYQIGLFRVASMASEKMKILELPFASGTMSMLVLLPDEVSGLEQLESIINFEKLTEWTSSNVMEERKIKVYLPRMKMEEKYNLTSVLMAMGITDVFSSSANLSGISSAESLKISQAVHAAHAEINEAGREVVGSAEAGVDAASVSEEFRADHPFLFCIKHIATNAVLFFGRCVSP
As to B1, the “T cell recognition of K^b -expressing Drosophila cells (IL-2 production)” value in the experiment with B3/CD8 T cell hybridoma is reported as “no recognition occurred”.
